Measurements taken from patent publication US20080242649A1, “New Combination 665” (priority 2007, published 2008).
Counter-ions that a name gives are not always drawn.

Assays:
[1] = tested on: methacholine-induced bronchoconstriction; experiment: Lung function in anaesthetized guinea-pigs, methacholine challenge; format: in vivo, Dunkin-Hartley guinea pig; settings: for inhibition of methacholine-induced bronchoconstriction: methacholine 5 μg/kg i.v.; for increase in resistance: methacholine 5 μg/kg, vehicle 1898±211%
Experimental: Evaluation of Lung Function in Anaesthetized Guinea-Pigs
Male Dunkin-Hartley guinea pigs (300-600 g) were weighed and dosed with vehicle (0.05M phosphate, 0.1% Tween 80, 0.6% saline, pH 6) or compound via the intratracheal route under recoverable gaseous anaesthesia (5% halothane in oxygen). Animals were dosed with compound or vehicle two hours prior to the administration of histamine or methacholine.
Guinea pigs were anaesthetized with pentobarbitone (1 mL/kg of 60 mg/mL solution i.p.) approximately 30 minutes prior to the first bronchoconstrictor administration. The trachea was cannulated and the animal ventilated using a constant volume respiratory pump (Harvard Rodent Ventilator model 683) at a rate of 60 breath/min and a tidal volume of 5 ml/kg. A jugular vein was cannulated for the administration of histamine, methacholine or maintenance anaesthetic (0.1 mL of pentobarbitone solution, 60 mg/mL, as required).
The animals were transferred to a Flexivent System (SCIREQ, Montreal, Canada) in order to measure airway resistance. The animals were ventilated (quasi-sinusoidal ventilation pattern) at 60 breaths/min at a tidal volume of 5 mL/kg. A positive end expiratory pressure of 2-3 cmH2O was applied. Respiratory resistance was measured using the Flexivent “snapshot” facility (1 second duration, 1 Hz frequency). Once stable baseline resistance value had been obtained the animals were given histamine or methacholine in ascending doses (0.5, 1, 2, 3 and 5 μg/kg, i.v.) at approximately 4-minute intervals via the jugular catheter. After each administration of bronchoconstrictor the peak resistance value was recorded. Guinea pigs were euthanized with approximately 1.0 mL pentobarbitone sodium (Euthatal) intravenously after the completion of the lung function measurements. Percentage bronchoprotection produced by a compound was calculated at each dose of brochoconstrictor as follows:
Where % change Rveh is the mean of the maximum percentage change in airway resistance in the vehicle treated group. The results reported were measured after 5 μg/kg histamine or methacholine and were expressed as percentage bronchoprotection (mean ±s.e.mean).

[2] = target: T1, Adrenergic β2 (Homo sapiens, UniProt P07550); experiment: Adrenergic β2 mediated cAMP production in H292 cells (AlphaScreen); format: cell-based
T1 construct: Adherent H292 cells were removed from tissue culture flasks; endogenous in cells; host or cells: H292 cells
Experimental: Adrenergic β2 mediated cAMP production
H292 cells were grown in 225 cm2 flasks incubator at 37° C., 5% CO2 in RPMI medium containing, 10% (v/v) FBS (foetal bovine serum) and 2 mM L-glutamine.
Adherent H292 cells were removed from tissue culture flasks by treatment with Accutase™ cell detachment solution for 15 minutes. Flasks were incubated for 15 minutes in a humidified incubator at 37° C., 5% CO2. Detached cells were re-suspended in RPMI media (containing 10% (v/v) FBS and 2 mM L-glutamine) at 0.05×10^6 cells per mL. 5000 cells in 100 μL were added to each well of a tissue-culture-treated 96-well plate and the cells incubated overnight in a humidified incubator at 37° C., 5% CO2. The culture media was removed and cells were washed twice with 100 μL assay buffer and replaced with 50 μL assay buffer (HBSS solution containing 10 mM HEPES pH7.4 and 5 mM glucose). […]
The concentration of cAMP (cyclic adenosine monophosphate) in the cell lysate was determined using AlphaScreen™ methodology. […] The AlphaScreen™ signal was measured using an EnVision spectrophotometer (Perkin-Elmer Inc.) with the recommended manufacturer's settings. cAMP concentrations were determined by reference to a calibration curve determined in the same experiment using standard cAMP concentrations. […] Intrinsic Activity was expressed as a fraction relative to the maximum activity determined for formoterol in each experiment. […]

T1 sequence (P07550 whole entry): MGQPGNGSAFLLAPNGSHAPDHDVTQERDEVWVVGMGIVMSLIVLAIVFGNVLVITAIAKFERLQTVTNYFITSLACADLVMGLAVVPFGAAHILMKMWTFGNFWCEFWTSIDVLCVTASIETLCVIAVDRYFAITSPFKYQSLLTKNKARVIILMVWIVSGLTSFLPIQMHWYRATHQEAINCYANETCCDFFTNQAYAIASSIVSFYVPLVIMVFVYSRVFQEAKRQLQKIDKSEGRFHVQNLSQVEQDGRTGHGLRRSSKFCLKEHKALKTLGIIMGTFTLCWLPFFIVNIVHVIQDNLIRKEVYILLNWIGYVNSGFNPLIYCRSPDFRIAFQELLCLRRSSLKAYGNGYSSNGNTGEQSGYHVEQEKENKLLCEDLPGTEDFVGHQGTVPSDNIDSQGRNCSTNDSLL

`CCN(CC)CCN(CCNCCc1ccc(O)c2[nH]c(=O)sc12)C(=O)CCOCCc1cccc2ccccc12` [Compound A, N-[2-(Diethylamino)ethyl]-N-(2-{[2-(4-hydroxy-2-oxo-2,3-dihydro-1,3-benzothiazol-7-yl)ethyl]amino}ethyl)-3-[2-(1-naphthyl)ethoxy]propanamide dihydrobromide] was tested, and the “inhibition of methacholine-induced bronchoconstriction” value ([1]; compound A 1 μg/kg intratracheal 2 h before) was 15%, the increase in resistance ([1]; compound A 1 μg/kg intratracheal) was 1619±235% and the “inhibition of methacholine-induced bronchoconstriction” value ([1]; compound A 27 μg/kg intratracheal 2 h before) was 82%. For the same compound, the increase in resistance ([1]; compound A 27 μg/kg intratracheal) was 347±71%, the EC50 ([2]; H292 cells, cAMP, 300 μM rolipram, read-out: β2 pEC50 (converted)) was 6.31 nM and the “β2 Int Act” value ([2]; Intrinsic Activity as fraction relative to maximum activity of formoterol) was 0.8.
